The test system of assay [1] is TSA adenocarcinoma. Put plainly: In-vivo assay on mice, TSA tumour growth, MARIGENOL 0,1% microemulsions. More on the design: species or system mice (Balb-c); key: + swelling. The note with it: 0,1% microemulsion. The protocol: The in-vivo assays were carried out on female mice. Old Balb-c strain animals of 28-32 g body weight were used (Charles River, Milan). Used as comparison standards throughout was the spontaneous adenocarcinoma TSA, a murine tumour cell line which was provided regularly by Prof. Guido Forni, Istituto di Microbiologia, Universita degli Studi di Torino, Scuola di Medicina.
A series of groups of 5 test animals each were fed with ordinary test feed (NAFAG complete feed No. 850, from Nahr- und Futtermittel AG, Gossau).
14 days after the introduction (average latency period), the newly-formed tissue is palpitated; ditto after 21 and after 28 days, and in some cases 35, days. The mean of the length and width of the solid, distinct tumour mass under the skin is determined (postmortem recheck).
To test the activity of the preparations in live organisms, the remaining test animals receive a daily dose of 0.25 ml of a test preparation by tube, in addition to the ordinary test feed. After an adaptation period of 5-7 days, the tumour is introduced, likewise inguinally, with 80-100'000 TSA units, as for the controls. It takes in every single case, in the group and on repetition, thus permitting the statistical groups to be kept to a relatively low number.
The experimental set-up is the same as in the case of gavage. Instead of using a tube, the preparations to be tested are administered inguinally by injection (right flank, subcutaneously), at a rate of 0.25 ml 3 times per week.

Assay [2] concerns TSA: murine adenocarcinoma (spontaneous cancer of the breast). The assay is described as follows: In-vitro plaque assay of MARIGENOL microemulsions, greatest cytotoxic dilution, TSA. The format is cell-based. The note with it: cell line TSA; 5 h; microemulsion 0,1%. The protocol:
A biological assay system using microtiter plates and serial dilutions has been developed Batches of 10^4 tumour cells per ml were set up in culture medium RPMI 1640 and […] with 10% of fetal calf serum (GIBCO); the cells are spread at a density low enough to enable them to grow during the assay in so-called non-confluent monolayers. Samples are added after 6-24 hours, with 100 μl per row, to which 100 μl of medium are added in the first well. Half of this mixture is withdrawn, transferred into the next well and again treated with 100 μl of medium, etc.
In the plaque assay, the samples are incubated at 37° C. for 3-5 days under 31/2% of CO2. They are then stained and fixed using 0.1% crystal violet (Fluka, Buchs) in a solution of 70% of methanol, 1% of formaldehyde and 29% water. The samples are evaluated under the microscope, magnification 300×. The greatest cytotoxic dilution is determined. The samples can also be evaluated quantitatively by means of scanning and absorption measurement in a spectrophotometer.

Turning to “stigmasta-5,22-dien-3-ol-doiecenoate [Stigmasterol-dodecenoate]”, the “Tumor mass Σ1/2 L + B” value in assay [1] (TSA after 14 days) is 0 mm; in assay [1] (TSA after 21 days), 0 mm; in assay [1] (TSA after 28 days), 2 mm.
As for `CC/C=C\C/C=C\C/C=C\CCCCCCCC(=O)O[C@H]1CC[C@@]2(C)C(=CC[C@H]3[C@@H]4CC[C@H]([C@H](C)CC[C@@H](CC)C(C)C)[C@@]4(C)CC[C@@H]32)C1` [C 18:3-SITOSTEROL, stigmast-5-en-3-ol-9,12,15-octadecatrienoate], the results for the “Tumor mass Σ1/2 L + B” value in assay [1] (TSA after 14 days), in assay [1] (TSA after 21 days) and in assay [1] (TSA after 28 days) were “+”, “+” and 1 mm, respectively.
Consider “β-SITOSTEROLUNDECENOATE [C 11:1-SITOSTEROL]”, for which the “Active in dilution to 1:” value in assay [2] is listed as 40 1:.
For “stigmast-5-en 3-ol-dodecenoate [C 12:1-SITOSTEROL]”, in assay [2], the “Active in dilution to 1:” value is given as 640 1:. For the same compound, the “Tumor mass Σ1/2 L + B” value in assay [1] (TSA after 14 days) is recorded as 1 mm; in assay [1] (TSA after 21 days), 0 mm; in assay [1] (TSA after 28 days), 2 mm.
Regarding `CCCCCCCCCCCCCCCC(=O)O[C@H]1CC[C@@]2(C)C(=CC[C@H]3[C@@H]4CC[C@H]([C@H](C)/C=C/[C@@H](CC)C(C)C)[C@@]4(C)CC[C@@H]32)C1` [C 16:0 STIGMASTEROL, STIGMASTEROL-PALMITATE], the “Active in dilution to 1:” value in assay [2] is given as 80 1:.
For the compound `CCCCC/C=C\C/C=C\CCCCCCCC(=O)O[C@H]1CC[C@@]2(C)C(=CC[C@H]3[C@@H]4CC[C@H]([C@H](C)CC[C@@H](CC)C(C)C)[C@@]4(C)CC[C@@H]32)C1` [β-Sitosterol-linoleate, stigmast-5-en-3-ol-9,12-octadecadienoate], the “Tumor mass Σ1/2 L + B” value in assay [1] (TSA after 14 days) is reported as 0 mm; in assay [1] (TSA after 21 days), “+”; in assay [1] (TSA after 28 days), 1 mm.

The values are drawn from patent US5270041A, “Sterols, their fatty acid esters and glucosides; processes for their preparation; spontaneously dispersible agents containing these compounds, and their use for treatment of tumors” (Marigen S.A., priority 1989, dated 1993).
